In US20110183949A1, “Use of Fulvestrant in the Treatment of Resistant Breast Cancer” (priority 2000, published 2011):

Experiments:
[1] = tested on: estrogen receptor (ER); conditions: relative to oestradiol equivalent of 1.0; cited from earlier work
[2] = tested on: MCF-7 tumours; conditions: cited from earlier work
[3] = tested on: MCF-7 human breast cancer cells; conditions: MCF-7 cells, cited from earlier work; for reduction in MCF-7 cell numbers (inhibition): same conditions for fulvestrant and tamoxifen (tamoxifen: maximum)
[4] = tested on: breast cancer; conditions: women whose breast cancer has progressed following tamoxifen therapy; cited from earlier work
[5] = tested on: breast cancer; assay: treatment of breast cancer patients who failed previous aromatase inhibitor treatment; assay type: in vivo, human; conditions: patients previously treated with an aromatase inhibitor (optionally also a SERM) and failed

Question: For oestradiol, which “relative binding affinity for the estrogen receptor (ER)” value [1] is on record?
Answer: Its value is 1.0.

Question: For `C[C@]12CC[C@@H]3c4ccc(O)cc4C[C@@H](CCCCCCCCC[S+]([O-])CCCC(F)(F)C(F)(F)F)[C@H]3[C@@H]1CC[C@@H]2O` (stereo partly drawn) [fulvestrant, 7-alpha-[9-(4,4,5,5,5pentafluoropentylsulphiny)nonyl]-estra-1,3,5(10)-triene-3, 17βdiol], which “duration of growth suppression of established MCF-7 tumours versus tamoxifen” value ([2]; established MCF-7 tumours, compared with tamoxifen treatment) is on record?
Answer: The value was “twice as long”.

Question: What about the “delay of tumourgenesis versus tamoxifen-treated mice” value ([2]; mice) of the same compound?
Answer: The value was “delayed to a greater extent”.

Question: What about the “sensitivity of tamoxifen-resistant MCF-7 tumours to treatment” value ([2]; tumours grown out after long-term treatment with tamoxifen) of the same compound?
Answer: Its value is “remain sensitive to fulvestrant treatment”.

Question: What about the IC50 ([3]; read-out: IC50, inhibitory effect on the growth of MCF-7 human breast cancer cells) of the same compound?
Answer: Its IC50 is 0.29 nM.

Question: What about the “reduction in MCF-7 cell numbers (inhibition)” value [3] of the same compound?
Answer: The value was 80%.

Question: And the “efficacy in phase II trial” value [4]?
Answer: Its value is “demonstrated efficacy”.

Question: What about the “relative binding affinity for the estrogen receptor (ER)” value [1] of the same compound?
Answer: Its value is 0.89.

Question: What about the “sensitivity of breast cancer to further treatment” value [5] of the same compound?
Answer: The value was “sensitive to further treatment by fulvestrant”.

Question: Which “reduction in MCF-7 cell numbers (inhibition)” value [3] does the source give for `CC/C(=C(\c1ccccc1)c1ccc(OCCN(C)C)cc1)c1ccccc1` [tamoxifen] here?
Answer: Its value is at most 50%.
